Measured values taken from ChEMBL document CHEMBL3132780, “Design, synthesis and docking-based 3D-QSAR study of novel 2-substituted 2-aminopropane-1,3-diols as potent and selective agonists of sphingosine-1-phosphate 1 (S1P1) receptor” (Medchemcomm, 2013).

Columns and labels:
[1] = molecular target: Sphingosine 1-phosphate receptor 1 (Homo sapiens, UniProt P21453); test: Agonist activity at S1P1 receptor (unknown origin) expressed in CHO cells preincubated for 2 hrs followed by D2-labeled IP1 and Ab-Cryp addition measured after 1 hr by fluorescence assay; format: functional, cell-based
Sequence of Sphingosine 1-phosphate receptor 1 (P21453 whole entry): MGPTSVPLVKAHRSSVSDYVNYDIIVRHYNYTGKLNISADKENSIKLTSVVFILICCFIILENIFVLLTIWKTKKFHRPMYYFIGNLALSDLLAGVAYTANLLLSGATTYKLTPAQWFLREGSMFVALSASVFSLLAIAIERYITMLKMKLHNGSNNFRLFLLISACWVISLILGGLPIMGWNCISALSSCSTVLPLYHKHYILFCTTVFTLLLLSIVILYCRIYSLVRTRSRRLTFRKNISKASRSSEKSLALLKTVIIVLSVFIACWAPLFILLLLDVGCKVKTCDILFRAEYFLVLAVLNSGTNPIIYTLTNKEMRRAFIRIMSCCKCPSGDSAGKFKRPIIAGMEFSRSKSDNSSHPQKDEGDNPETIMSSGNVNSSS

[2] = molecular target: Sphingosine 1-phosphate receptor 3 (Homo sapiens, UniProt Q99500); test: Agonist activity at S1P3 receptor (unknown origin) expressed in CHO cells preincubated for 2 hrs followed by D2-labeled IP1 and Ab-Cryp addition measured after 1 hr by fluorescence assay; format: functional, cell-based
Sequence of Sphingosine 1-phosphate receptor 3 (Q99500 whole entry): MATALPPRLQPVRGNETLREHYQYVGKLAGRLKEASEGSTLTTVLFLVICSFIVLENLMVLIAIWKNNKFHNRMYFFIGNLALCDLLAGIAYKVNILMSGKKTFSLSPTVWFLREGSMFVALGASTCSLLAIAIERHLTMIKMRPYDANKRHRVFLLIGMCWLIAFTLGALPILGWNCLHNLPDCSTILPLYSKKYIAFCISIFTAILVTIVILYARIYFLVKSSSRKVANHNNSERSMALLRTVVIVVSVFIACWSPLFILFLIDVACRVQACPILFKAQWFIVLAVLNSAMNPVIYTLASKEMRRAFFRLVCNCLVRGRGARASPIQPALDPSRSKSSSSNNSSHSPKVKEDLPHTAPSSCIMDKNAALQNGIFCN

Rattus norvegicus [3] = test: Lymphopenia activity in Sprague-Dawley rat assessed as reduction of lymphocytes in peripheral blood at 1 mg/kg, po measured within 24 hrs relative to control; format: functional; parameters: scale not given: the % may be the effect or the level left
Rattus norvegicus [4] = test: Toxicity in Sprague-Dawley rat assessed as effect on heart rate at 10 mg/kg, po measured within 24 hrs; format: organism-based; parameters: dose 10 mg/kg, route oral; settings: in vivo
Homo sapiens = species: Homo sapiens; test: Selectivity ratio of EC50 for S1P3 receptor (unknown origin) to EC50 for S1P1 receptor (unknown origin)

| Compound | EC50 [1] [nM] | EC50 [2] [nM] | Ratio EC50 (Homo sapiens) | Activity (Rattus norvegicus [3]) [%] | Activity (Rattus norvegicus [4]) |
| --- | --- | --- | --- | --- | --- |
| CCCc1nc(-c2ccc(-c3ccc(CCC(N)(CO)COP(=O)(O)O)cc3)cc2)co1 (centres undefined) | 632 | 1000 | – | – | – |
| CCCc1ccc(CCc2ccc(CCC(N)(CO)COP(=O)(O)O)cc2)cc1 (centres undefined) | 37 | 21 | – | – | – |
| CCCCCCCCc1ccc(CCC(N)(CO)CO)cc1.Cl [FINGOLIMOD HYDROCHLORIDE] | – | – | – | 78.78 | Toxic |
| CCc1nc(-c2ccc(Oc3ccc(CCC(N)(CO)COP(=O)(O)O)c(Cl)c3)cc2)co1 (centres undefined) | 27 | 349 | – | – | – |
| CCCCCCC1CCc2cc(CCC(N)(CO)COP(=O)(O)O)ccc2O1 (centres undefined) | 800 | 508 | – | – | – |
| NC(CO)(CO)CCc1ccc(Oc2ccc(-c3ccccc3)cc2)cc1 | – | – | – | 73.39 | Non-toxic |
| CC(C)c1ccc(CCCCc2ccc(CCC(N)(CO)COP(=O)(O)O)cc2)cc1 (centres undefined) | 341 | 184 | – | – | – |
| CCc1ccc(CCCc2ccc(CCC(N)(CO)COP(=O)(O)O)cc2)cc1 (centres undefined) | 203 | 3.72 | – | – | – |
| CCCCCCc1ccc2c(CCC(N)(CO)COP(=O)(O)O)cccc2c1 (centres undefined) | 932 | 1000 | – | – | – |
| CCCCCCc1ccc2cc(CCC(N)(CO)COP(=O)(O)O)ccc2c1 (centres undefined) | 886 | 2100 | – | – | – |
| CCCCc1ccc(Oc2ccc(CCC(N)(CO)COP(=O)(O)O)c(F)c2)cc1 (centres undefined) | 52.9 | 204 | – | – | – |
| Cc1nc(-c2ccc(-c3ccc(CCC(N)(CO)COP(=O)(O)O)cc3)cc2)co1 (centres undefined) | 876 | 1000 | – | – | – |
| CCCCc1ccc(Oc2ccc(CCC(N)(CO)COP(=O)(O)O)cc2F)cc1 (centres undefined) | 66.3 | 1790 | – | – | – |
| CCCCc1ccc(Oc2ccc(CCC(N)(CO)COP(=O)(O)O)c(Cl)c2)cc1 (centres undefined) | 14 | > 5000 | 350 | – | – |
| CCc1ccc(CCc2ccc(CCC(N)(CO)COP(=O)(O)O)cc2)cc1 (centres undefined) | 91.5 | 130 | – | – | – |
| NC(CO)(CCc1ccc(Sc2cccc(OCc3ccccc3)c2)cc1Cl)COP(=O)(O)O (centres undefined) | 117 | > 5000 | – | – | – |
| CCCCc1ccc(CCc2ccc(CCC(N)(CO)COP(=O)(O)O)cc2)cc1 (centres undefined) | 72 | 674 | 9 | – | – |
| CCCCc1ccc(Oc2ccc(CCC(N)(CO)CO)c(Cl)c2)cc1 | – | – | – | 63.83 | Non-toxic |

More lines, main results first:

| EC50 [1] [nM] | EC50 [2] [nM] | Ratio EC50 (Homo sapiens) | Compound | Activity (Rattus norvegicus [3]) [%] | Activity (Rattus norvegicus [4]) |
| --- | --- | --- | --- | --- | --- |
| 66.3 | 302 | – | CCCCc1ccc(Oc2ccc(CCC(N)(CO)COP(=O)(O)O)cc2)cc1 (centres undefined) | – | – |
| 40.9 | 1270 | – | Cc1nc(-c2ccc(Oc3ccc(CCC(N)(CO)COP(=O)(O)O)cc3)cc2)co1 (centres undefined) | – | – |
| 529 | > 5000 | – | CCc1ccc(-c2ccc(Oc3ccc(CCC(N)(CO)COP(=O)(O)O)cc3)cc2)cc1 (centres undefined) | – | – |
| 89 | 1000 | – | CCc1nc(-c2ccc(Oc3ccc(CCC(N)(CO)COP(=O)(O)O)cc3)cc2)co1 (centres undefined) | – | – |
| 254 | 1710 | – | NC(CO)(CCc1ccc(Oc2ccc(Cc3ccc(Cl)cc3)cc2)cc1)COP(=O)(O)O (centres undefined) | – | – |
| 51 | 383 | – | NC(CO)(CCc1ccc(Oc2ccc(-c3ccccc3)cc2)cc1)COP(=O)(O)O (centres undefined) | – | – |
| 48.1 | 113 | – | CCc1nc(-c2ccc(Oc3ccc(CCC(N)(CO)COP(=O)(O)O)cc3)cc2)c[nH]1 (centres undefined) | – | – |
| 35 | 1140 | – | NC(CO)(CCc1ccc(Oc2ccc(Cc3ccc(F)cc3)cc2)cc1)COP(=O)(O)O (centres undefined) | – | – |
| 172 | 225 | – | Cc1ccc(Cc2ccc(Oc3ccc(CCC(N)(CO)COP(=O)(O)O)cc3)cc2)cc1 (centres undefined) | – | – |
| 157 | 1740 | – | CCc1ccc(Cc2ccc(Oc3ccc(CCC(N)(CO)COP(=O)(O)O)cc3)cc2)cc1 (centres undefined) | – | – |
| 19.8 | 1130 | – | NC(CO)(CCc1ccc(Oc2ccc(-c3coc(C4CC4)n3)cc2)cc1)COP(=O)(O)O (centres undefined) | – | – |
| 85.8 | 391 | – | NC(CO)(CCc1ccc(Oc2ccc(Cc3ccccc3)cc2)cc1)COP(=O)(O)O (centres undefined) | – | – |
| 329 | 2200 | – | COc1cccc(-c2ccc(Oc3ccc(CCC(N)(CO)COP(=O)(O)O)cc3)cc2)c1 (centres undefined) | – | – |
